Here are results for 27 compounds from patent US8809355B2, “GABAA receptor modulators” (Innovationspatent Sverige AB, priority 2008, dated 2014).

In one data set the target is benzodiazepine receptor. As to the kind of experiment: Displacement of 3H-flumazenil in rat cortical tissue (receptor binding). To be noted: for Ki: 3H-Flumazenil binding in vitro, rat cortical membranes, mean ± SD of three determinations. Here is the method: Affinity of test substances for the benzodiazepine receptor was determined in vitro by displacement of ^3H-flumazenil in rat cortical tissue.

Turning to `CCOC(=O)n1c(=S)[nH]c2ccc(C)cc2c1=O` [Compound 3b, Ethyl 6-methyl-4-oxo-2-thioxo-1,4-dihydroquinazoline-3(2H)-carboxylate], the melting point (usually the temperature of the solid-liquid transition) worked out at 164 °C. In addition, on benzodiazepine receptor, the Ki (in general, the dissociation constant of the complex between target and ligand, obtained from inhibition or displacement) was over 30000 nM. Moreover, the “affinity for the BZD receptor (in words)” value in the data set with benzodiazepine receptor (discussion of Table 1) is “low affinity”.

Take `Cc1ccc(-n2nc3c4cc(Br)ccc4[nH]c(=O)n3c2=O)cc1` [Compound 8a, 9-Bromo-2-(4-methylphenyl)-2,6-dihydro[1,2,4]triazolo[4,3-c]quinazoline-3,5-dione]: the melting point worked out at 369 °C. The compound also gave a Ki on benzodiazepine receptor of 0.24 ± 0.07 nM.

Compound `O=c1[nH]c2ccc(Br)cc2c2nn(-c3ccccc3)c(=O)n12` [Compound 8b, 9-Bromo-2-phenyl-2,6-dihydro[1,2,4]triazolo[4,3-c]quinazoline-3,5-dione] displayed a melting point of 405 °C. On benzodiazepine receptor, this compound had a Ki of 0.47 ± 0.09 nM.

As for `O=c1[nH]c2ccc(Br)cc2c2nn(-c3ccc(Cl)cc3)c(=O)n12` [Compound 8c, 9-Bromo-2-(4-chlorophenyl)-2,6-dihydro[1,2,4]triazolo[4,3-c]quinazoline-3,5-dione], the melting point was 387 °C (dec.). In addition, the affinity at benzodiazepine receptor corresponds to a Ki of 0.6 ± 0.26 nM.

Consider `O=c1[nH]c2ccc(Br)cc2c2nn(-c3ccccc3F)c(=O)n12` [Compound 8d, 9-Bromo-2-(2-fluorophenyl)-2,6-dihydro[1,2,4]triazolo[4,3-c]quinazoline-3,5-dione], for which the melting point was 347 °C (dec.). The compound also yielded a Ki on benzodiazepine receptor of 0.2 ± 0.07 nM.

As to `Cc1ccc2[nH]c(=O)n3c(=O)n(-c4ccccc4)nc3c2c1` [Compound 8e, 9-Methyl-2-phenyl-2,6-dihydro[1,2,4]triazolo[4,3-c]quinazoline-3,5-dione], the melting point was 330 °C (dec.). This compound displayed a Ki at benzodiazepine receptor of 0.62 ± 0.13 nM.

For the compound `Cc1ccc(-n2nc3c4cc(C#Cc5ccccc5)ccc4[nH]c(=O)n3c2=O)cc1` [Compound 13a, 2-(4-Methylphenyl)-9-phenylethynyl-2,6-dihydro[1,2,4]triazolo[4,3-c]-quinazoline-3,5-dione], the melting point was > 300 °C (dec.). At benzodiazepine receptor, this compound displayed a Ki of 40 nM.

In the case of `Cc1ccc(-n2nc3c4cc(C#Cc5ccsc5)ccc4[nH]c(=O)n3c2=O)cc1` [Compound 13b, 2-(4-Methylphenyl)-9-(3-thienylethynyl)-2,6-dihydro[1,2,4]triazolo[4,3-c]-quinazoline-3,5-dione], the melting point was > 320 °C (dec.).

In the case of `Cc1ccc(-n2nc3c4cc(C#Cc5ccccn5)ccc4[nH]c(=O)n3c2=O)cc1` [Compound 13c, 2-(4-Methylphenyl)-9-(pyridin-2-ylethynyl)-2,6-dihydro[1,2,4]triazolo[4,3-c]-quinazoline-3,5-dione], the melting point came out at 330 °C.

For the compound `Cc1ccc(-n2nc3c4cc(C#Cc5cccnc5)ccc4[nH]c(=O)n3c2=O)cc1` [Compound 13d, 2-(4-Methylphenyl)-9-(pyridin-3-ylethynyl)-2,6-dihydro[1,2,4]triazolo[4,3-c]-quinazoline-3,5-dione], the melting point stood at 339 °C.

In turn, `Cc1ccc(-n2nc3c4cc(C#Cc5ccncc5)ccc4[nH]c(=O)n3c2=O)cc1` [Compound 13e, 2-(4-Methylphenyl)-9-(pyridin-4-ylethynyl)-2,6-dihydro[1,2,4]triazolo[4,3-c]-quinazoline-3,5-dione] registered a melting point of 330 °C.

In turn, `Cc1ccc(-n2nc3c4cc(C#Cc5ccc(Oc6ccccc6)cc5)ccc4[nH]c(=O)n3c2=O)cc1` [Compound 13f, 2-(4-Methylphenyl)-9-[(4-phenoxyphenyl)ethynyl]-2,6-dihydro[1,2,4]triazolo[4,3-c]-quinazoline-3,5-dione] returned a melting point of 216 °C.

Regarding `Cc1ccc(-n2nc3c4cc(C#Cc5ccc(-c6ccccc6)cc5)ccc4[nH]c(=O)n3c2=O)cc1` [Compound 13g, 9-(Biphen-4-ylethynyl)-2-(4-methylphenyl)-2,6-dihydro[1,2,4]triazolo[4,3-c]-quinazoline-3,5-dione], the melting point is > 350 °C (dec.).

As for `Cc1ccc(-n2nc3c4cc(C#Cc5cccc(O)c5)ccc4[nH]c(=O)n3c2=O)cc1` [Compound 13i, 9-(3-Hydroxyphenyl)ethynyl-2-(4-methylphenyl)-2,6-dihydro[1,2,4]triazolo[4,3-c]-quinazoline-3,5-dione], the melting point was 300 °C (dec.).

The compound `Cc1ccc(-n2nc3c4cc(CCc5ccccc5)ccc4[nH]c(=O)n3c2=O)cc1` [Compound 14a, 2-(4-Methylphenyl)-9-(2-phenylethyl)-2,6-dihydro[1,2,4]triazolo[4,3-c]-quinazoline-3,5-dione] yielded a melting point of 303 °C. The affinity at benzodiazepine receptor, expressed as Ki, was 4 ± 1.2 nM. Further, the “fold difference in potency among the ethylene linked compounds, thiophene over phenyl” value in the data set on benzodiazepine receptor (ratio of Ki values, printed as 14a over 14b) is 4 fold.

`Cc1ccc(-n2nc3c4cc(CCc5ccsc5)ccc4[nH]c(=O)n3c2=O)cc1` [Compound 14b, 2-(4-Methylphenyl)-9-[2-(3-thienyl)ethyl]-2,6-dihydro[1,2,4]triazolo[4,3-c]-quinazoline-3,5-dione] showed a melting point of 281 °C. Also, the affinity on benzodiazepine receptor, expressed as Ki, was 0.94 ± 0.27 nM.

Consider `Cc1ccc(-n2nc3c4cc(CCc5ccccn5)ccc4[nH]c(=O)n3c2=O)cc1` [Compound 14c, 2-(4-Methylphenyl)-9-[2-(2-pyridyl)ethyl]-2,6-dihydro[1,2,4]triazolo[4,3-c]-quinazoline-3,5-dione], for which the melting point was > 300 °C (dec.). This compound showed a Ki on benzodiazepine receptor of 0.53 ± 0.11 nM.

Take `Cc1ccc(-n2nc3c4cc(CCc5cccnc5)ccc4[nH]c(=O)n3c2=O)cc1` [Compound 14d, 2-(4-Methylphenyl)-9-[2-(3-pyridyl)ethyl]-2,6-dihydro[1,2,4]triazolo[4,3-c]-quinazoline-3,5-dione]: the melting point stood at 292 °C. At benzodiazepine receptor, the affinity, expressed as Ki, was 0.2 ± 0.04 nM.

`Cc1ccc(-n2nc3c4cc(CCc5ccncc5)ccc4[nH]c(=O)n3c2=O)cc1` [Compound 14e, 2-(4-Methylphenyl)-9-[2-(4-pyridyl)ethyl]-2,6-dihydro[1,2,4]triazolo[4,3-c]-quinazoline-3,5-dione]: the melting point came out at 294 °C. At benzodiazepine receptor, this compound registered a Ki of 0.17 ± 0.03 nM.

`Cc1ccc(-n2nc3c4cc(CCc5ccc(Oc6ccccc6)cc5)ccc4[nH]c(=O)n3c2=O)cc1` [Compound 14f, 2-(4-Methylphenyl)-9-[2-(4-phenoxyphenyl)ethyl]-2,6-dihydro[1,2,4]triazolo[4,3-o]-quinazoline-3,5-dione] gave a melting point of 213 °C. Besides, at benzodiazepine receptor, the inhibition constant Ki was found to be 123 ± 12 nM.

Compound `Cc1ccc(-n2nc3c4cc(CCc5ccc(-c6ccccc6)cc5)ccc4[nH]c(=O)n3c2=O)cc1` [Compound 14g] registered a melting point of 345 °C. Moreover, the affinity at benzodiazepine receptor corresponds to a Ki of 1570 ± 150 nM.

`Cc1ccc(-n2nc3c4cc(CCc5cccc(O)c5)ccc4[nH]c(=O)n3c2=O)cc1` [Compound 14i, 9-[2-(3-hydroxyphenyl)ethyl]-2-(4-Methylphenyl)-2,6-dihydro[1,2,4]triazolo[4,3-c]-quinazoline-3,5-dione]: the melting point was 300 °C (dec.). The inhibitory constant (Ki) at benzodiazepine receptor is 6.2 nM.

In turn, `Cc1ccc(-n2nc3c4cc(Cc5ccccc5)ccc4[nH]c(=O)n3c2=O)cc1` [Compound 16a, 9-Benzyl-2-(4-methylphenyl)-2,6-dihydro[1,2,4]triazolo[4,3-c]quinazoline-3,5-dione] had a melting point of 299 °C. This compound also showed an inhibitory constant (Ki) at benzodiazepine receptor of about 1 nM.

In the case of `Cc1ccc(-n2nc3c4cc(Cc5cccc(F)c5)ccc4[nH]c(=O)n3c2=O)cc1` [Compound 16b, 9-(3-Fluorobenzyl)-2-(4-methylphenyl)-2,6-dihydro[1,2,4]triazolo[4,3-c]quinazoline-3,5-dione], the melting point amounted to 324 °C. Moreover, at benzodiazepine receptor, the affinity corresponds to a Ki of 2.1 ± 0.3 nM.

Compound `Cc1ccc(-n2nc3c4cc(Cc5ccsc5)ccc4[nH]c(=O)n3c2=O)cc1` [Compound 16c, 2-(4-Methylphenyl)-9-(3-thienylmethyl)-2,6-dihydro[1,2,4]triazolo[4,3-c]quinazoline-3,5-dione] showed a melting point of 287 °C. The compound further displayed a Ki on benzodiazepine receptor of 0.23 ± 0.18 nM. Besides, the “fold higher affinity of methylene linked thiophene compared to phenyl 16a” value in the data set on benzodiazepine receptor (ratio of Ki values, vs 16a) amounted to 5 fold.

As for `Cc1ccc(-n2nc3c4cc(/C=C/C(=O)OCc5ccccc5)ccc4[nH]c(=O)n3c2=O)cc1` [Compound 17, Benzyl (2E)-3-[2-(4-methylphenyl)-3,5-dioxo-2,6-dihydro[1,2,4]triazolo[4,3-c]quinazolin-9-yl]acrylate], the melting point turned out to be 242 °C.

In turn, `Cc1ccc(-n2nc3c4cc(CCC(=O)O)ccc4[nH]c(=O)n3c2=O)cc1` [Compound 18, 3-[2-(4-Methylphenyl)-3,5-dioxo-2,6-dihydro[1,2,4]triazolo[4,3-c]quinazolin-9-yl]propanoic acid] came in with a melting point of 275 °C. Moreover, the Ki at benzodiazepine receptor was 1.4 nM.
